# Target: hROMK (human Kir1.1) (Homo sapiens (Human), UniProt P48048)
# Assay: cell-based
# Conditions: CHO T-Rex hROMK stable cell line; thallium flux; 10-point concentration response curve; read-out: Human ROMK Th Flux IC50
# hROMK (human Kir1.1), sequence (P48048 whole entry): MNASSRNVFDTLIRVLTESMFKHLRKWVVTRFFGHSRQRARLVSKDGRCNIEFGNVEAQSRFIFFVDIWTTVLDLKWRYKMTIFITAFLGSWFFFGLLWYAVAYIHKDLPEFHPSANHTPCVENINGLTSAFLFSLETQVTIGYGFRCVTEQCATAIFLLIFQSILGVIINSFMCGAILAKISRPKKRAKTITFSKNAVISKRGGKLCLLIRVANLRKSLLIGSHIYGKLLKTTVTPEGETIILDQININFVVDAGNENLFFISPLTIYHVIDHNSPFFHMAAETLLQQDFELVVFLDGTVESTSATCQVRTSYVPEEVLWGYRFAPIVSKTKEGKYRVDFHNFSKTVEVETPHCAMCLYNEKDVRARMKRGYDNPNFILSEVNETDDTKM
row,SMILES,IC50
1,"Cc1c([C@@H]2CN(Cc3ccc(-n4cc(C(N)=O)cn4)nc3)CCN2)ccc2c1COC2=O [Example 138-I, (R)-1-(5-((3-(4-methyl-1-oxo-1,3-dihydroisobenzofuran-5-yl)piperazin-1-yl)methyl)pyridin-2-yl)-1H-pyrazole-4-carboxamide]",670 nM
2,"Cc1cn(-c2cc(C(F)(F)F)c(CN3CCN[C@H](c4ccc5c(c4C)COC5=O)C3)cn2)cn1 [Example 147-I, (R)-4-methyl-5-(4-((6-(4-methyl-1H-imidazol-1-yl)-4-(trifluoromethyl)pyridin-3-yl)methyl)piperazin-2-yl)isobenzofurna-1(3H)-one]",87 nM
3,"Cc1cc(N2CCOC2=O)cc(-n2cc(CN3C[C@@H](c4ccc5c(c4C)COC5=O)N[C@@H](C)C3)cn2)c1 [Example 152-I, 3-(3-methyl-5-(4-(((3S,5R)-3-methyl-5-(4-methyl-1-oxo-1,3-dihydroisobenzofuran-5-yl)piperazin-1-yl)methyl)-1H-pyrazol-1-yl)phenyl)oxazolidin-2-one]",490 nM
4,"Cc1c([C@@H]2CN(Cc3cnn(-c4ccc(S(C)(=O)=O)cn4)c3)C[C@H](C)N2)ccc2c1COC2=O [Example 161-I, 4-methyl-5-((2R,6S)-6-methyl-4-((1-(5-(methylsulfonyl)pyridin-2-yl)-1H-pyrazol-4-yl)methyl)piperazin-2-yl)isobenzofuran-1(3H)-one]",170 nM
5,"COc1cc(-n2cnc(CN3CC[C@@H](O)[C@H](c4ccc5c(c4C)COC5=O)C3)c2)ccc1C#N [Example 162-I, 4-(4-(((3R,4R)-4-hydroxy-3-(4-methyl-1-oxo-1,3-dihydroisobenzofuran-5-yl)piperidin-1-yl)methyl)-1H-imidazol-1-yl)-2-methoxybenzonitrile]",260 nM
6,"COc1cc(-n2cc(CN3C[C@@H](c4ccc5c(c4C)COC5=O)N[C@@H](C)C3)n(C(C)C)c2=O)ncc1C#N [Example 172-I, 6-(3-isopropyl-4-(((3S,5R)-3-methyl-5-(4-methyl-1-oxo-1,3-dihydroisobenzofuran-5-yl)piperazin-1-yl)methyl)-2-oxo-2,3-dihydro-1H-imidazol-1-yl)-4-methoxynicotinonitrile]",160 nM
7,"Cc1c([C@@H]2CN(Cc3ccc(-c4ccnc(N5CCOC5=O)c4)nc3)C[C@H](C)N2)ccc2c1COC2=O [Example 174-I, 3-(5-(((3S,5R)-3-methyl-5-(4-methyl-1-oxo-1,3-dihydroisobenzofuran-5-yl)piperazin-1-yl)methyl)-[2,4′-bipyridin]-2′-yl)oxazolidin-2-one]",220 nM
8,"Cc1cc(-n2nnc(CN3C[C@@H](c4ccc5c(c4C)COC5=O)N[C@@H](C)C3)c2C)ncc1C#N [Example 176-I, 4-methyl-6-(5-methyl-4-(((3S,5R)-3-methyl-5-(4-methyl-1-oxo-1,3-dihydroisobenzofuran-5-yl)piperazin-1-yl)methyl)-1H-1,2,3-triazol-1-yl)nicotinonitrile]",120 nM
9,"Cc1c([C@@H]2CN(Cc3cnn(-c4ccnc5c4ccn5C)c3)CCO2)ccc2c1COC2=O [Example 177-I, (R)-4-methyl-5-(4-((1-(1-methyl-1H-pyrrolo[2,3-b]pyridin-4-yl)-1H-pyrazol-4-yl)methyl)morpholin-2-yl)isobenzofuran-1(3H)-one]",500 nM
10,"Cc1ccc(-n2cnc(CN3C[C@@H](c4ccc5c(c4C)COC5=O)N[C@@H](C)C3)c2)cc1 [Example 178-I, 4-methyl-5-((2R,6S)-6-methyl-4-((1-(p-tolyl)-1H-imidazol-4-yl)methyl)piperazin-2-yl)isobenzofuran-1(3h)-one]",220 nM
11,"Cc1cnccc1-n1cnc(CN2C[C@@H](c3ccc4c(c3C)COC4=O)N[C@@H](C)C2)c1 [Example 179-I, 4-methyl-5-((2R,6S)-6-methyl-4-((1-(3-methylpyridin-4-yl)-1H-imidazol-4-yl)methyl)piperazin-2-yl)isobenzofuran-1(3H)-one]",360 nM
12,"Cc1ccc(-n2cnc(CN3C[C@@H](c4ccc5c(c4C)COC5=O)N[C@@H](C)C3)c2)cn1 [Example 180-I, 4-methyl-5-((2R,6S)-6-methyl-4-((1-(6-methylpyridin-3-yl)-1H-imidazol-4-yl)methyl)piperazin-2-yl)isobenzofuran-1(3H)-one]",77 nM
13,"Cc1cc(-n2cnc(CN3C[C@@H](c4ccc5c(c4C)COC5=O)N[C@@H](C)C3)c2)cc(C)n1 [Example 181-I, 5-((2R,6S)-4-((1-(2,6-dimethylpyridin-4-yl)-1H-imidazol-4-yl)methyl)-6-methylpiperazin-2-yl)-4-methylisobenzofuran-1(3H)-one]",150 nM
14,"Cc1c([C@@H]2CN(Cc3cn(-c4ccc5c(c4)OC(F)(F)O5)cn3)C[C@H](C)N2)ccc2c1COC2=O [Example 182-I, 5-((2R,6S)-4-((1-(2,2-difluorobenzo[d][1,3]dioxol-5-yl)-1H-imidazol-4-yl)methyl)-6-methylpiperazin-2-yl)-4-methylisobenzofuran-1(3H)-one]",260 nM
15,"Cc1cc(-c2cnc(CN3CCN[C@H](c4ccc5c(c4C)COC5=O)C3)nc2)ncc1C#N [Example 183-I, (R)-4-methyl-6-(2-((3-(4-methyl-1-oxo-1,3-dihydroisobenzofuran-5-yl)piperazin-1-yl)methyl)pyrimidin-5-yl)nicotinonitrile]",180 nM
16,"Cc1cc(-n2cc(CN3CCN[C@H](c4ccc5c(c4C)COC5=O)C3)nn2)nc(C)c1C#N [Example 186-I, (R)-2,4-dimethyl-6-(4-((3-(4-methyl-1-oxo-1,3-dihydroisobenzofuran-5-yl)piperazin-1-yl)methyl)-1H-1,2,3-triazol-1-yl)nicotinonitrile]",18 nM
17,"Cc1c([C@@H]2CN(Cc3cnc(-n4c(C)nnc4C)nc3)CCN2)ccc2c1COC2=O [Example 201-I, (R)-5-(4-((2-(3,5-dimethyl-4H-1,2,4-triazol-4-yl)pyrimidn-5-yl)methyl)piperazin-2-yl)-4-methylisobenzofuran-1(3H)-one]",190 nM
18,"Cc1c(C#N)ccnc1-n1cc(CN2C[C@@H](c3ccc4c(c3C)COC4=O)N[C@@H](C)C2)cn1 [Example 202-I, 3-methyl-2-(4-(((3S,5R)-3-methyl-5-(4-methyl-1-oxo-1,3-dihdyroisobenzofuran-5-yl)piperazin-1-yl)methyl)-1H-pyrazol-1-yl)isonicotinonitrile]",140 nM
19,"Cc1cnc(-n2cc(CN3C[C@@H](c4ccc5c(c4C)COC5=O)N[C@@H](C)C3)cn2)cn1 [Example 206-I, 4-methyl-5-((2R,6S)-6-methyl-4-((1-(5-methylpyrazin-2-yl)-1H-pyrazol-4-yl)methyl)piperazin-2-yl)isobenzofuran-1(3H)-one]",82 nM
20,"COc1ncc(-n2cc(CN3C[C@@H](c4ccc5c(c4C)COC5=O)N[C@@H](C)C3)cn2)cn1 [Example 208-I, 5-((2R,6S)-4-((1-(2-methoxypyrimidin-5-yl)-1H-pyrazol-4-yl)methyl)-6-methylpiperazin-2-yl)-4-methylisobenzofuran-1(3H)-one]",190 nM
21,"Cc1ncc(-n2cc(CN3C[C@@H](c4ccc5c(c4C)COC5=O)N[C@@H](C)C3)cn2)cn1 [Example 209-I, 4-methyl-5-((2R,6S)-6-methyl-4-((1-(2-methylpyrimidin-5-yl)-1H-pyrazol-4-yl)methyl)piperazin-2-yl)isobenzofuran-1(3H)-one]",100 nM
22,"Cc1cn(-c2ncc(CN3CCO[C@H](c4ccc5c(c4C)COC5=O)C3)cn2)cn1 [Example 224-I, (R)-4-methyl-5-(4-((2-(4-methyl-1H-imidazol-1-yl)pyrimidin-5-yl)methyl)morpholin-2-yl)isobenzofuran-1(3H)-one]",27 nM
23,"Cc1cc(-n2cc(CN3CCC(=O)C(c4ccc5c(c4C)COC5=O)C3)cn2)ncc1C#N (centres unmarked) [Example 232-I, 4-methyl-6-(4-((3-(4-methyl-1-oxo-1,3-dihydroisobenzofuran-5-yl)-4-oxopiperidin-1-yl)methyl)-1H-pyrazol-1-yl)nicotinonitrile]",480 nM
24,"Cc1c([C@@H]2CN(Cc3cnc(-n4cncn4)nc3)CCN2)ccc2c1COC2=O [Example 234-I, (R)-5-(4-((2-(1H-1,2,4-triazol-1-yl)pyrimidin-5-yl)methyl)piperazin-2-yl)-4-methylisobenzofuran-1(3H)-one]",78 nM
25,"Cc1c([C@@H]2CN(Cc3ccc(-n4cnc(C(F)F)c4)nc3)CCN2)ccc2c1COC2=O [Example 235-I, (R)-5-(4-((6-(4 (difluoromethyl)-1H-imidazol-1-yl)pyridin-3-yl)methyl)piperazin-2-yl)-4-methylisobenzofuran-1(3H)-one]",83 nM
26,"Cc1c([C@@H]2CN(Cc3ccc(-c4ccc(=O)n(C)c4)nc3)C[C@H](C)N2)ccc2c1COC2=O [Example 238-I, 1′-methyl-5-(((3S,5R)-3-methyl-5-(4-methyl-1-oxo-1,3-dihydroisobenzofuran-5-yl)piperazin-1-yl)methyl)-[2,3′-bipyridin]-6′(1′H)-one]",470 nM
27,"Cc1cc(-n2ncc(CN3C[C@H](C)N(O)[C@H](c4ccc5c(c4C)COC5=O)C3)n2)ncc1C#N [Example 246-I, 6-(4-(((3S,5R)-4-hydroxy-3-methyl-5-(4-methyl-1-oxo-1,3-dihydroisobenzofuran-5-yl)piperazin-1-yl)methyl)-2H-1,2,3-triazol-2-yl)-4-methylnicotinonitrile]",870 nM
28,"Cc1cc(-n2ccc(CN3C[C@@H](c4ccc5c(c4C)COC5=O)N[C@@H](C)C3)cc2=O)ncc1C#N [Example 247-I, 4′-methyl-4-(((3S,5R)-3-methyl-5-(4-methyl-1-oxo-1,3-dihydroisobenzofuran-5-yl)piperazin-1-yl)methyl)-2-oxo-2H-[1,2′-bipyridine]-5′-carbonitrile]",330 nM
29,"Cc1cc(N2CCCS2(=O)=O)cc(-n2cc(CN3C[C@@H](c4ccc5c(c4C)COC5=O)N[C@@H](C)C3)cn2)n1 [Example 253-I, 5-((2R,6S)-4-((1-(4-(1,1-dioxidoisothiazolidin-2-yl)-6-methylpyridin-2-yl)-1H-pyrazol-4-yl)methyl)-6-methylpiperazin-2-yl)-4-methylisobenzofuran-1(3H)-one]",400 nM
